The values below come from article PMC10092294 (Biomaterials, 2023).

One assay deals with T1, human Topo I (Homo sapiens, UniProt P11387).
T1 sequence (P11387 1-765): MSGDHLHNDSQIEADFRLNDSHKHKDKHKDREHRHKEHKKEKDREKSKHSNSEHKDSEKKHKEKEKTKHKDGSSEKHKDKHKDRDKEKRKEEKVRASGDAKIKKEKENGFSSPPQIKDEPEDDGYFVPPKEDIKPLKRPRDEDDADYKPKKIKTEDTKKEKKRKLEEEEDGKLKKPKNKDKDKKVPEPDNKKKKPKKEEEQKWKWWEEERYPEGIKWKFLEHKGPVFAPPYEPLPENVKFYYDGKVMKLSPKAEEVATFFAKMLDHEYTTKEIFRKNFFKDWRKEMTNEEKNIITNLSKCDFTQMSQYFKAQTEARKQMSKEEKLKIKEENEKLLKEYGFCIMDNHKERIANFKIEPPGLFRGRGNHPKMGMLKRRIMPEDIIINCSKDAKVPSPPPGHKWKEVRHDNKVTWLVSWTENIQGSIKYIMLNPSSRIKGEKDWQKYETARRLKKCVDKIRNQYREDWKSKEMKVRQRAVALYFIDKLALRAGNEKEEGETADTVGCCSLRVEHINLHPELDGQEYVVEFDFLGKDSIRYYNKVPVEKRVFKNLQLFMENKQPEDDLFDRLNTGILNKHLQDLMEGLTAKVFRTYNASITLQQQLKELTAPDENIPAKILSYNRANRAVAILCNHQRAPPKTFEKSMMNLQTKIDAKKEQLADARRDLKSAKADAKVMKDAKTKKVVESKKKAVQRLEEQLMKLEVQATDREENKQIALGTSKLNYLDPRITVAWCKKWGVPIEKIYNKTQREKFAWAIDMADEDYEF
The assay can be described thus: Topoisomerase I inhibition assay. The format is biochemical. The conditions noted are these: for Topo I inhibition: final drug concentration 100 μM.

Assay [1] has as its system four different endometrial cancer cell lines. In kind it is cell-based, human. As to conditions: 72 hours.
The next assay concerns the target human Topo IIα (Homo sapiens, UniProt P11388). Nature of the assay: Topoisomerase II inhibition assay. The format is biochemical. The conditions noted are these: read-out: Topo II inhibition.
In a further assay the test system is microtubule assembly. As to conditions: cited from earlier work.
The subject of assay [2] is Hec50co LOFp53 cells. The assay can be described thus: MTS cell viability assay, Hec50co LOFp53. The format is cell-based. As to conditions: Homo sapiens, 72 h, read-out: cell viability. A general note: Tetrazolium assays rely on reduction of a dye to a coloured formazan, in cell work by metabolically active cells.
For assay [3], the system named is Hec50co GOFp53 cells. The assay can be described thus: MTS cell viability assay, Hec50co GOFp53. In kind it is cell-based. As to conditions: Homo sapiens, 72 h, read-out: cell viability.
Another assay has as its system KLE GOFp53 cells. Nature of the assay: MTS cell viability assay, KLE GOFp53. The format is cell-based. As to conditions: Homo sapiens, 72 h, read-out: cell viability.
The subject of assay [4] is Hec50co LOFp53 cells. The assay can be described thus: Cell cycle assay. In kind it is cell-based, human. As to conditions: 10 nM PTX alone, 24 hours.
Assay [5] relates to Hec50co GOFp53 cells. Nature of the assay: Cell cycle assay. The format is cell-based, human. The conditions noted are these: 10 nM PTX alone, 24 hours.
For a further assay, the target named is tubulin (Sus scrofa, UniProt P02554). Nature of the assay: Fluorescence-based tubulin polymerization assay. The conditions noted are these: 3 μM. In kind it is biochemical.
tubulin, sequence (P02554 whole entry): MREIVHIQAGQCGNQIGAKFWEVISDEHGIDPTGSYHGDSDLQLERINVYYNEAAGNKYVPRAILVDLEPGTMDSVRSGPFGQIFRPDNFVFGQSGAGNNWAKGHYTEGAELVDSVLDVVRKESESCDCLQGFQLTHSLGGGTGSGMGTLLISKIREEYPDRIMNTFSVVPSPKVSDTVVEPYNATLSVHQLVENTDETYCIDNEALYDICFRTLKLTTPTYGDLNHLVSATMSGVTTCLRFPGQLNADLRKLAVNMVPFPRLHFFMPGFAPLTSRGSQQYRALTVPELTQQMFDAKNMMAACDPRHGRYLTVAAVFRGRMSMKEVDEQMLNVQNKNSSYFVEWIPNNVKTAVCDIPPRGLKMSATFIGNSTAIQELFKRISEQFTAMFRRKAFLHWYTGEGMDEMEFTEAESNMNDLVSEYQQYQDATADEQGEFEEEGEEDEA
tubulin, sequence (P02550 whole entry partner): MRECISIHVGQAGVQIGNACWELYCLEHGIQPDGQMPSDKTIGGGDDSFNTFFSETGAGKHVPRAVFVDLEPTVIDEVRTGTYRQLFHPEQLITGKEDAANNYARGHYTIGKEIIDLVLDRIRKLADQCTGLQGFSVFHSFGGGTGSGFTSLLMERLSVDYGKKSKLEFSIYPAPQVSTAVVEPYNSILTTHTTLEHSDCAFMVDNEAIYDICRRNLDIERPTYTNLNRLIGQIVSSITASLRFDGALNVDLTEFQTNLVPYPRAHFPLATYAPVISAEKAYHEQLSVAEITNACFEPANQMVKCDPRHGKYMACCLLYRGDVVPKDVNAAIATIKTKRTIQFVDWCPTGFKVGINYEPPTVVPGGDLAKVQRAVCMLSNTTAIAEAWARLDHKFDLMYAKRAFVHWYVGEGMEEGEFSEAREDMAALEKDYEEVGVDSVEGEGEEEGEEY
In another assay the test system is caspase-9. The assay can be described thus: Caspase-9 activity in Hec50co LOFp53 cells. In kind it is cell-based, human. As to conditions: 24 hours.
A further assay concerns caspase-3. Nature of the assay: Caspase-3 activity in Hec50co LOFp53 cells. The format is cell-based, human. As to conditions: 5 nM or 10 nM PTX alone, 72 hours.
In assay [6] the test system is Hec50co LOFp53 xenograft tumors. Nature of the assay: In vivo antitumor efficacy, human endometrial cancer xenograft model. Also on record: species or system athymic Nu/Nu mice. The conditions noted are these: five doses. (A xenograft is tissue or cells of one species grown in another, often human tumour cells in immunodeficient mice.)

human Topo IIα, sequence (P11388 whole entry): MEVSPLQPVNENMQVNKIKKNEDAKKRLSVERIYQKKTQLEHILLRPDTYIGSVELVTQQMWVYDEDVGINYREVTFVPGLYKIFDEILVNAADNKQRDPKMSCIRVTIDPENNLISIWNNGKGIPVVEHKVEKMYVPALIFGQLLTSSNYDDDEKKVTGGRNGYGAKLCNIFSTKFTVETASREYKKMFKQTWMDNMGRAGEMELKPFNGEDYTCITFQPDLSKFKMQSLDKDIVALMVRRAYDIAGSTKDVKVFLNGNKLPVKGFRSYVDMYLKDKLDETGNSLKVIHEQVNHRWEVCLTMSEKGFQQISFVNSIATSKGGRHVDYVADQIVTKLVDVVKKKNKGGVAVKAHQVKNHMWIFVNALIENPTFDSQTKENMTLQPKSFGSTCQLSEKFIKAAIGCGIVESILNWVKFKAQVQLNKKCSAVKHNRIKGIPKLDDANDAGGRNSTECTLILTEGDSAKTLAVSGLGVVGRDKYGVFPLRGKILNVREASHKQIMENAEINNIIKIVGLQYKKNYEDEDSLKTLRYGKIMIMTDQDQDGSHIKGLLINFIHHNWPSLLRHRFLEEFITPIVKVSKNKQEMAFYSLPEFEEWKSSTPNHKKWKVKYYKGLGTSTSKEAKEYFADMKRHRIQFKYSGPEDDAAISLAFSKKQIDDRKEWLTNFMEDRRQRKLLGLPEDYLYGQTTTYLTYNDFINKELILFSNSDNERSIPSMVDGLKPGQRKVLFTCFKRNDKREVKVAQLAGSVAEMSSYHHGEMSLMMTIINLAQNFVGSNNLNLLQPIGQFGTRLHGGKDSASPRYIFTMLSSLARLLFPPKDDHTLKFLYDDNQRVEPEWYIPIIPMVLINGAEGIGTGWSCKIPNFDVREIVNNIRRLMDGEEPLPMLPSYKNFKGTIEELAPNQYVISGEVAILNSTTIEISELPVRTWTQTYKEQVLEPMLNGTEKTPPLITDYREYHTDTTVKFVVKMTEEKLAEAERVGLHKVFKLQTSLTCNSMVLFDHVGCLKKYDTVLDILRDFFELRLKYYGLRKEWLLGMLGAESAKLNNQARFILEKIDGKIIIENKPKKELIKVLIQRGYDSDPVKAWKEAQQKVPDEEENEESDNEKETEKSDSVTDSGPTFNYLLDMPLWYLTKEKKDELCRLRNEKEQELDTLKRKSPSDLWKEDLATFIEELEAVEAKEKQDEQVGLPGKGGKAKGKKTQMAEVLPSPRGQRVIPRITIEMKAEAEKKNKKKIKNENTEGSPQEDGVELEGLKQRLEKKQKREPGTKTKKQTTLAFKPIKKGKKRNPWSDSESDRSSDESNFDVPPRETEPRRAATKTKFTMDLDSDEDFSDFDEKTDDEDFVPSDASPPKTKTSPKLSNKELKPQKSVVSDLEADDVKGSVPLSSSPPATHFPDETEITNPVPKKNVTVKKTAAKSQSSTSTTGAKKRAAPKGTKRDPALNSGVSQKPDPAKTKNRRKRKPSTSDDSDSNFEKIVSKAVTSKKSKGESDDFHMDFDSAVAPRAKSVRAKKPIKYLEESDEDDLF

With `CC[C@@]1(O)C(=O)OCc2c1cc1n(c2=O)Cc2cc3ccccc3nc2-1` [CAM, camptothecin], the inhibition at 100 µM at human Topo I (read-out: Topo I inhibition) was found to be 52.6 ± 1.3%.
As for `O=C(O)c1cn(C2CC2)c2cc(N3CCNCC3)c(F)cc2c1=O` [CIP, ciprofloxacin], the “benefit of CIP alone or in combination with PTX in comparison to PTX alone” value in assay [1] is “no benefits”. In addition, on human Topo I, the “Topo I inhibition” value is on record as “no activity”. In addition, the inhibition at 100 µM at human Topo IIα came out at 62.3 ± 17.1%. In addition, the “impact on microtubule assembly in cells” value in the assay with microtubule assembly is on record as “does not impact”.
Consider `COc1cc([C@@H]2c3cc4c(cc3[C@@H](O[C@@H]3O[C@@H]5CO[C@@H](C)O[C@H]5[C@H](O)[C@H]3O)[C@H]3COC(=O)[C@H]23)OCO4)cc(OC)c1O` [ETO, etoposide], for which the inhibition at 100 µM at human Topo IIα is 96.3 ± 0.8%.
Turning to `CC(=O)O[C@H]1C(=O)[C@@]2(C)[C@H]([C@H](OC(=O)c3ccccc3)[C@]3(O)C[C@H](OC(=O)[C@H](O)[C@@H](NC(=O)c4ccccc4)c4ccccc4)C(C)=C1C3(C)C)[C@]1(OC(C)=O)CO[C@@H]1C[C@@H]2O` [PTX, paclitaxel], the viability at 0.01 µM with Hec50co LOFp53 cells [2] was found to be 31.2 ± 4.1%; in the assay with Hec50co GOFp53 cells [3] it was 17.9 ± 1.4%; in the assay on KLE GOFp53 cells, 63.5 ± 0.6%. The “cells in the G2/M phase” value in the assay on Hec50co LOFp53 cells [4] came to 43.7 ± 0.5%; in the assay with Hec50co GOFp53 cells [5], 57.3 ± 1.1%. Further, at human Topo I, the “Topo I inhibition” value is “no activity”. In addition, the inhibition at 100 µM on human Topo IIα came out at 8.3 ± 4.2%. The “onset time of tubulin polymerization” value on tubulin was “approximately 5 minutes”. In addition, the results for the “caspase-9 activity vs untreated” value in the assay with caspase-9 (5 nM PTX) and in the assay on caspase-9 (10 nM PTX) were “did not show a significant difference” and “significant increase”, respectively. Besides, in the assay on caspase-3, the “caspase-3 activity vs untreated” value was “significantly higher”. Besides, the “average tumor volumes vs PBS group” value in assay [6] (5 mg/kg PTX SC peritumoral) is on record as “smaller than those in control mice injected with PBS, albeit not significantly”. In addition, the “average weight of tumors vs PBS group, day 53” value in assay [6] (5 mg/kg PTX ± 5 mg/kg CIP2b SC peritumoral) was “not significantly different”.

In general, inhibition refers to the percentage by which the read-out fell short of the control. Broadly, the viability is a per cent measure of how many cells are alive, often set against a control.
